Results published in ChEMBL document CHEMBL3621180, “Isolation of two new bioactive sesquiterpene lactone glycosides from the roots of Ixeris dentata” (Bioorg Med Chem Lett, 2015).

Legend:
[1] = Antiinflammatory activity in […] BV2 cells assessed as inhibition of lipopolysaccharide-induced nitric oxide production at 20 uM incubated for 24 hrs by Griess reagent based assay (reference value: 20.3 +/- 0.1 uM); assay type: functional, BV-2
[2] = Antiinflammatory activity in […] BV2 cells assessed as inhibition of lipopolysaccharide-induced nitric oxide production at 5 uM incubated for 24 hrs by Griess reagent based assay (reference value: 20.3 +/- 0.1 uM); assay type: functional, BV-2
[3] = Cytotoxic activity against […] BV2 cells assessed as cell viability at 20 uM incubated for 24 hrs by MTT assay (reference value: 100%); assay type: cell-based, BV-2; details: mouse, read-out: Activity
[4] = Cytotoxic activity against […] BV2 cells assessed as cell viability at 5 uM incubated for 24 hrs by MTT assay (reference value: 100%); assay type: cell-based, BV-2; details: read-out: Activity

| Structure (SMILES) | Activity [1] | Activity [2] | viability at 24 h, 20 µM [3] | viability at 24 h, 5 µM [4] |
| --- | --- | --- | --- | --- |
| C=C1C[C@@H](O)[C@@H]2[C@H](OC(=O)[C@H]2C)[C@H]2C(C)=C(O[C@@H]3O[C@H](CO)[C@@H](O)[C@H](O)[C@H]3O)C[C@@H]12 | 17.2 µM | 19.9 µM | 108% | 108% |
| C=C1C(=O)O[C@@H]2[C@H]3C(C)=C(O[C@@H]4O[C@H](CO)[C@@H](O)[C@H](O)[C@H]4O)C[C@H]3C(=C)C[C@@H](OC(=O)Cc3ccc(O)cc3)[C@@H]12 | 9.3 µM | 18.2 µM | 103% | 106% |
| C=C1[C@@H]2[C@H]3OC(=O)[C@@H](C)[C@@H]3CCC(=C)[C@@H]2C[C@@H]1O[C@@H]1O[C@H](CO)[C@@H](O)[C@H](O)[C@H]1O | 18.2 µM | 19.9 µM | 116% | 116% |
| C=C1[C@@H]2[C@H]3OC(=O)[C@@H](C)[C@@H]3C[C@@H](O)C(=C)[C@@H]2C[C@@H]1O[C@@H]1O[C@H](CO)[C@@H](O)[C@H](O)[C@H]1O | 17.5 µM | 18.6 µM | 114% | 102% |
| C=C1[C@@H]2[C@H]3OC(=O)C(=C)[C@@H]3C[C@@H](O)C(=C)[C@@H]2C[C@@H]1O[C@@H]1O[C@H](CO)[C@@H](O)[C@H](O)[C@H]1O | 18.7 µM | 19.7 µM | 110% | 110% |
| C=C1C(=O)O[C@@H]2[C@H]3C(=C)[C@@H](O[C@@H]4O[C@H](CO)[C@@H](O)[C@H](O)[C@H]4O)C[C@H]3C(=C)C[C@@H](O)[C@@H]12 | 17.6 µM | 19.8 µM | 103% | 104% |
| C=C1C[C@@H](O)[C@@H]2[C@H](OC(=O)[C@H]2C)[C@H]2[C@H](C)[C@@H](O[C@@H]3O[C@H](CO)[C@@H](O)[C@H](O)[C@H]3O)C[C@@H]12 | 19.4 µM | 19.6 µM | 103% | 103% |
| C=C1[C@@H]2[C@H]3OC(=O)[C@@H](C)[C@@H]3[C@H](O)CC(=C)[C@@H]2C[C@@H]1O[C@@H]1O[C@H](CO)[C@@H](O)[C@H](O)[C@H]1O | 18 µM | 20.4 µM | 105% | 106% |
| C=C1C(=O)O[C@@H]2[C@H]3C(=C)[C@@H](O[C@@H]4O[C@H](CO)[C@@H](O)[C@H](O)[C@H]4O)C[C@H]3C(=C)C[C@@H](OC(=O)Cc3ccc(O)cc3)[C@@H]12 | 16.3 µM | 20.3 µM | 109% | 106% |
| C=C1C(=O)O[C@@H]2[C@H]3C(=C)[C@@H](O[C@@H]4O[C@H](CO)[C@@H](O)[C@H](O)[C@H]4O)C[C@H]3C(=C)C[C@@H](OC(=O)C(O)C(C)C)[C@@H]12 (stereo not given in full) | 18.2 µM | 21.5 µM | 97.5% | 105% |
| CC1=C2[C@H]3OC(=O)[C@@H](C)[C@@H]3CC[C@@]2(C)[C@H](O)CC1 | 17.7 µM | 17.9 µM | 110% | 110% |
| CC1=CC[C@@H](O[C@@H]2O[C@H](CO)[C@@H](O)[C@H](O)[C@H]2O)[C@]2(C)CC[C@@H]3[C@H](OC(=O)[C@H]3C)[C@@H]12 | 18.4 µM | 18.9 µM | 112% | 107% |
| C=C1C(=O)O[C@@H]2/C=C(\CO[C@@H]3O[C@H](CO)[C@@H](O)[C@H](O)[C@H]3O)CC/C=C(\C)CC[C@@H]12 | 18 µM | 20.1 µM | 103% | 105% |
| C/C1=C\CC/C(CO[C@@H]2O[C@H](CO)[C@@H](O)[C@H](O)[C@H]2O)=C/[C@H]2OC(=O)[C@@H](C)[C@@H]2CC1 | 18.8 µM | 19.6 µM | 107% | 113% |
| CNC(=N)NCCC[C@H](N)C(=O)O [TILARGININE] | 14.1 µM | 20.1 µM | 108% | 112% |
